One data set deals with GL-261 glioma. The data set is described as follows: Survival in syngeneic mouse GL-261 orthotopic glioma model. In kind it is in vivo, C57BL/6 mice. Particulars: temozolomide 300 mg/m^2 qdx5, anti-PD-1 15 mg/m^2 q4dx5. The protocol: At 5 days prior to treatment initiation, female C57BL/6 (C57BL/6NHsd) mice 6–7 weeks old (Envigo; Indianapolis, IN) were inoculated intracranially with 3 µL of GL-261 murine glioblastoma tumor cells at 1 × 10^5 cells/mouse. Implant coordinates were 1 mm anterior and 2 mm lateral to the bregma, at a depth of 3 mm. Buprenorphine (Reckitt Benckiser Healthcare; UK) was administered to the mice approximately 30 min prior to surgery. After 5 days, mice were randomized into one of the treatment groups. For those mice administered Ad-RTS-mIL-12, the vector was administered through the same bur hole at the coordinates above in a constant volume of 3–5 μL. Veledimex was administered via oral gavage once daily for 14 consecutive days.
(§1) All values are expressed as the mean ± standard error of the mean. Statistical analysis was performed using a one-way analysis of variance with Dunnets post hoc test to compare differences between the groups versus control. Increased survival fractions were studied using Kaplan–Meier survival plot followed with a log-rank and Gehan–Wilcoxon tests to assess the significance of the differences. All statistical analyses were performed using GraphPrism 5 (GraphPad Software, Inc., CA, USA). Differences between groups were considered significant when P < 0.05. Pharmacokinetics and tissue levels of veledimex was determined using non-compartmental analysis module of the pharmacokinetic software Phoenix 64 WinNonlin.
In this model, each C57BL/6 mouse received 1 × 10^5 GL-261 glioma cells via intracranial injection ~2 mm distal to the intersection of the coronal and sagittal suture. On day 5, the animals were randomly assigned to one of the treatment groups. Animals were monitored for survival.
1 × 10^5 GL-261 glioma cells were administered into the brain. Separate groups of 12 C57BL/6 mice each were randomly assigned to one of the treatment groups. On day 1 animals were administered 1 × 10^5 GL-261 glioma cells intracranially. On day 5, Ad-RTS-mIL-12 at 5 × 10^9 vp+veledimex PO at 1–30 mg/m^2/day PO was administered for 14 consecutive days and the time to disease progression and death was studied. […] All values are expressed as the mean for >12 animals per group.

Data set [1] can be described thus: Plasma, CSF and brain pharmacokinetics of veledimex in mouse. The class given is in vivo, C57BL/6 mice. The protocol:
(§2) Brain tumor, plasma and cerebrospinal fluid (CSF) samples were analyzed for veledimex using liquid chromatography/tandem mass spectrometry method. Brain tumor samples were homogenized in homogenization solution (10:90/v:v/acetonitrile:0.1% Tween 80 in water) with ratio of 1 g to 9 mL and proteins precipitated. Veledimex concentrations were calculated with a Quadratic 1/x concentration weighting linear regression over concentration ranges of 0.0500 to 50 ng/mL using deuterated (D3) veledimex as an internal standard.
as §1
Veledimex was administered to separate groups of C57BL/6 mice at a single dose via oral gavage (PO) at 225 mg/m^2. Terminal blood and CSF and brain samples were collected at 1, 2, 4, 6, 24 and 48 h post dose.

Data set [2] is described as follows: Plasma and CSF pharmacokinetics of veledimex in cynomolgus monkey. The class given is in vivo. Particulars: cynomolgus monkeys. The protocol:
as §2, §1
A single oral dose of veledimex at 120 mg was administered to six cynomolgus monkeys (3/gender) and plasma and CSF levels were assessed through 48 h post treatment. Since no gender-related differences were observed, the data from male and female animals were pooled.

Data set [3] can be described thus: Brain veledimex level in in vivo mechanistic study (increasing vector dose, fixed veledimex dose). Also on record: species or system C57BL/6 mice. Particulars: mean ± SEM. The protocol:
as §2
In this study mice were administered Ad-RTS-mIL-12 1 × 10^8 to 5 × 10^9 vp intracranial at the coordinates stated above with veledimex administered gavage at a fixed dose of 100 mg/m^2/day PO, and brain veledimex, viral copy number and the ability to turn on the switch to elicit local production of IL-12 mRNA and IL-12 protein expressions were assessed. […] The 5 × 10^9 vp dose was chosen for all subsequent studies.

Setting [4] is: C57BL/6 mice, single oral dose 225 mg/m^2, CSF.
[5] abbreviates: C57BL/6 mice, single oral dose 225 mg/m^2, brain.

Data on three compounds can be found in PMC6021367, “Regulated intratumoral expression of IL-12 using a RheoSwitch Therapeutic System® (RTS®) gene switch as gene therapy for the treatment of glioma” (Cancer Gene Therapy, 2018).

`Cn1nnc2c(C(N)=O)ncn2c1=O` [temozolomide] showed a median survival with GL-261 glioma (bevacizumab 30 mg/m^2 biwk ×3) of 33 days. For the same compound, the “animals surviving to terminal killing” value in the data set on GL-261 glioma (bevacizumab 30 mg/m^2 biwk ×3, day 85) is on record as 14%. Also, in the data set with GL-261 glioma, the “tumor at terminal killing” value is “all mice having tumor present”.
Take `CCC[C@@H](N(NC(=O)c1cccc(OC)c1CC)C(=O)c1cc(C)cc(C)c1)C(C)(C)C` [veledimex]: the “Cmax and AUC0-t ratio between CSF and plasma” value in data set [1] (C57BL/6 mice, single oral dose 225 mg/m^2) is on record as 0.34%. The “CSF AUC0-t” value in data set [1] (setting [4]) was found to be 466 ng·h/mL. Further, the “CSF Cmax” value in data set [1] (setting [4]) came to 14 ng/mL. Also, the “AUC0-t in the brain” value in data set [1] (setting [5]) is 25325 ng·h/mL. Moreover, in data set [1] (setting [5]), the “Cmax in the brain” value is on record as 1794 ng/mL. Moreover, the Cmax in plasma was found to be 4153 ng/mL in data set [1] (C57BL/6 mice, single oral dose 225 mg/m^2, plasma); 327 ± 142 ng/mL in data set [2] (single oral dose 120 mg, plasma, males and females pooled). Besides, the “Blood–brain barrier crossing” value in data set [1] (mice, orally administered) is “crosses the blood–brain barrier”; in data set [2] (orally administered), “crosses the blood–brain barrier”. For the same compound, in data set [2] (single oral dose 120 mg), the “AUC0-t ratio between CSF and plasma” value is reported as 0.7 ± 0.2. For the same compound, the veledimex brain uptake in data set [2] (single oral dose 120 mg) is recorded as ~ 1%. In addition, the “AUC0-t in CSF” value in data set [2] (single oral dose 120 mg, CSF) came out at 42.5 ± 17.4 ng·h/mL. Also, the “Cmax in CSF” value in data set [2] (single oral dose 120 mg, CSF) is 2.07 ± 0.91 ng/mL. In data set [2] (single oral dose 120 mg, plasma), this compound registered an AUC0-t in plasma of 5887 ± 2203 ng·h/mL. Further, in data set [2] (single oral dose 120 mg, post dose), the “mean plasma Tmax” value is recorded as ~ 4 h. The “Brain veledimex Cmax” value in data set [3] (veledimex 100 mg/m^2/day PO + Ad-RTS-mIL-12 1 × 10^8 vp intracranial) was determined as 515 ± 53 ng/g; in data set [3] (veledimex 100 mg/m^2/day PO + Ad-RTS-mIL-12 1 × 10^9 vp intracranial), 311 ± 99 ng/g; in data set [3] (veledimex 100 mg/m^2/day PO + Ad-RTS-mIL-12 5 × 10^9 vp intracranial), 378 ± 68 ng/g.
The compound Bevacizumab came in with a median survival in the data set on GL-261 glioma (bevacizumab 30 mg/m^2 biwk ×3) of 20 days.
